One assay deals with T1, human CGRP receptor (Homo sapiens, UniProt O60894+Q16602).
T1 construct: SK-N-MC neuroblastoma cells (ATCC® HTB-10™) that endogenously express the hCGRP receptor; host or cells: SK-N-MC neuroblastoma cells
Description: Inhibition of cAMP production by CGRP receptor antagonists in SK-N-MC cells (HTRF). Format: cell-based. The settings on record: SK-N-MC neuroblastoma cells, human CGRP 0.8 nM as agonist, Kb estimated as agonist-corrected IC50, mean ± SEM; read-out: Kb hCGRP. The text has this:
Inhibition of cAMP Production by CGRP Receptor Antagonists
The hCGRP (human calcitonin gene-related peptide) receptor is functionally coupled to the Gαs proteins. Stimulation of hCGRP results in an increased synthesis of intracellular cAMP and can be blocked by the addition of receptor antagonists. Receptor activity is thus a reflection of the amount of cAMP present within cells which can be detected using standard in vitro technology.
Cultured SK-N-MC neuroblastoma cells (ATCC® HTB-10™) that endogenously express the hCGRP receptor are grown in Eagle's Minimum essential medium (HYCLONE™) supplemented with 10% heat-inactivated Fetal bovine serum (FBS; GIBCO®), Non-Essential Amino Acids (GIBCO®), 1 mM sodium pyruvate, 2 mM L-glutamine, 100 U/mL of penicillin, and 10 μg/mL of streptomycin to about 70% confluency. After providing fresh medium, the cells are incubated at 37° C. overnight. On the day of the assay, cells are detached using ACCUTASE® (MP Biomedicals), resuspended in assay buffer [Hank's Balanced Salt Solution/Dulbecco's phosphate-buffered saline with […] each of CaCl2 and MgCl2 mixed 1:2, 3.3 mM 4-(2-hydroxyethyl)-1-piperazineethanesulfonic acid, 0.03% bovine serum albumin, and 0.5 mM 1-methyl-3-isobutylxanthine (as inhibitor of […])], and seeded 3-5K/well into 384-well, poly-D-lysine coated white plates (BD Biosciences).
For dose-response studies, compounds are serially diluted 1:3 in dimethyl sulfoxide and then 1:10 into assay buffer. Human CGRP (0.8 nM; Bachem) as a receptor-specific agonist for the hCGRP receptor is mixed with diluted compound and added to the cells as the challenge stimulant at their EC80 concentrations.
The amount of intracellular cAMP is quantitated using HTRF technology (Cisbio) as per vendor instructions. Briefly, cAMP-d2 conjugate and anti-cAMP-cryptate conjugate in lysis buffer are incubated with the treated cells at room temperature for 90 min. The HTRF signal is immediately detected using an ENVISION® plate reader (Perkin-Elmer) to calculate the ratio of fluorescence at […]. The raw data are converted to cAMP amount (pmole/well) using a cAMP standard curve generated for each experiment. Relative EC50 values are calculated from the top-bottom range of the concentration response curve using a four-parameter logistic curve fitting program (ACTIVITYBASE® v5.3.1.22 or GENEDATA SCREENER® v12.0.4), and Kb values are estimated as agonist-corrected IC50 values using the equation: Kb=(IC50)/[1+([Agonist]/EC50)]. Estimated Kb values are reported as mean values±SEM, averaged from the number of runs (n).

The test system of a further assay is CGRP receptor. Description: Capsaicin-induced dermal blood flow (laser Doppler imaging) in non-human primates. The format is in vivo. The note with it: 90 min prior to capsaicin, cynomolgus NHP, compared to vehicle. The source says: Capsaicin-induced dermal blood flow (DBF) is used as a target engagement biomarker to assess CGRP receptor activity in nonhuman primates (NHPs). Methods are adapted from earlier published procedures [Hershey et al., Regulatory Peptides, Volume 127, Issue 1-3, pp. 71-77, 2005].
Animal studies may be performed under protocols approved by the Covance Institutional Animal Care and Use Committee. Cynomolgus NHPs may be used given the close homology between NHP and human CGRP receptor. The study population may include healthy, CGRP antagonist naive cynomolgus NHP males weighing ˜3-4 kg.
Cynomolgus NHPs are enrolled in the study based on prescreening for capsaicin responsiveness. […] NHPs are used in a cross over design in which all NHPs received all doses after a two week wash-out period. Total n=10 NHPs per group.
NHPs each receive vehicle, 3, 10 and 30 mg/kg of the CGRP receptor antagonist Example 1 administered orally (10% Acacia w/v/0.05% Antifoam 1510-US emulsion v/v/in purified water) 90 min prior to the capsaicin administration in the laser Doppler imaging (LDI) experiment.
Animals are fasted overnight prior to each capsaicin challenge. On the day of the experiment, the NHPs are anesthetized with 1% Isoflurane for approximately 30 min prior to scanning. The NHPs are placed in a quiet, temperature-controlled room supine on a warm small surgical blanket and the shaved arm is placed on a heating pad under the laser head. Three neoprene O-rings (size=8 mm ID) are placed on the NHP forearm, approximately 1 cm apart. During a 30-minute stabilization period, preliminary scans are obtained to confirm correct positioning of the O-rings. […]
LDI repeat scans are analyzed using Moor software v.5.3 (Moor Instruments, Wilmington, Del.) by region of interest signal analysis, and Microsoft Excel worksheets are used for averaging the signal from the regions of interest at a given time point. […] Analyzed data is entered into Graphpad PRISM® 4.0 for graphing and a repeated measurement mixed-effect model in SAS® 9.1 is used for statistical analysis. Data is expressed as mean+/−SEM.

T1 sequence (Q16602 23-461): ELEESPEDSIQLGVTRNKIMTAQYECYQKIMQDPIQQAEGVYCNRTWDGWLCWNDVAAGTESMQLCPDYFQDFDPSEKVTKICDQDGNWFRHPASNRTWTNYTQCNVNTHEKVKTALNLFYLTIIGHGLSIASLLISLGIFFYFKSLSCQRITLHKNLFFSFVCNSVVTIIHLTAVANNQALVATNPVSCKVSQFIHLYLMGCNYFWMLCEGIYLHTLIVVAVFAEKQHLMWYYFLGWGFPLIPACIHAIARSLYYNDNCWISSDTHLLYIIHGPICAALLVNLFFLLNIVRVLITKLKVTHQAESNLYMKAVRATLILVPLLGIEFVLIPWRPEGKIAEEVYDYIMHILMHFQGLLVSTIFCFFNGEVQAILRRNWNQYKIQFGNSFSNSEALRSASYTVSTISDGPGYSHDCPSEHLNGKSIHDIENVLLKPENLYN
T1 sequence (O60894 27-148): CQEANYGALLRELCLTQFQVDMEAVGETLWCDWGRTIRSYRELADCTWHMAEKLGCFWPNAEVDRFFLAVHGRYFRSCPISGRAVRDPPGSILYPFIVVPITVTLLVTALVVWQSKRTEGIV

As to `Cc1cc(C#N)nc(CNC(=O)c2ccc([C@@H](C)[C@@]3(C)C(=O)Nc4ncccc43)cc2)c1` [Example 11, N-[(6-cyano-4-methyl-2-pyridyl)methyl]-4-[(1R)-1-[(3R)-3-methyl-2-oxo-1H-pyrrolo[2,3-b]pyridin-3-yl]ethyl]benzamide], on human CGRP receptor, the Kb was 40.4 pM.

As to `Cc1cc(C)nc(CNC(=O)c2ccc([C@@H](C)[C@@]3(C)C(=O)Nc4ncccc43)cc2)c1` [Example 12, N-[(4,6-dimethylpyridin-2-yl)methyl]-4-{(1R)-1-[(3R)-3-methyl-2-oxo-2,3-dihydro-1H-pyrrolo[2,3-]pyridin-3-yl]ethyl}benzamide], the Kb at human CGRP receptor is 42.8 ± 13 pM.

On to `Cc1cc(CNC(=O)c2ccc([C@@H](C)[C@@]3(C)C(=O)Nc4ncccc43)cc2)cc(C(C)C)n1` [Example 14, 4-{(1R)-1-[(3R)-3-methyl-2-oxo-2,3-dihydro-1H-pyrrolo[2,3-b]pyridin-3-yl]ethyl}-N-{[2-methyl-6-(propan-2-yl)pyridin-4-yl]methyl}benzamide], for which the Kb on human CGRP receptor was 26 pM.

For `Cc1cc(CNC(=O)c2ccc([C@@H](C)[C@@]3(C)C(=O)Nc4ncccc43)cc2)cc(C#N)n1` [Example 16, N-[(2-cyano-6-methylpyridin-4-yl)methyl]-4-{(1R)-1-[(3R)-3-methyl-2-oxo-2,3-dihydro-1H-pyrrolo[2,3-b]pyridin-3-yl]ethyl}benzamide], the Kb at human CGRP receptor is 813 pM.

`Cc1cc(C)nc(CNC(=O)c2ccc([C@@H](C)[C@@]3(C)C(=O)Nc4ncncc43)cc2)c1` [Example 7, N-[(4,6-dimethylpyridin-2-yl)methyl]-4-{(1R)-1-[(5R)-5-methyl-6-oxo-6,7-dihydro-5H-pyrrolo[2,3-d]pyrimidin-5-yl]ethyl}benzamide]: the Kb on human CGRP receptor was 97.7 ± 2.76 pM.

`Cc1cc(CNC(=O)c2ccc([C@@H](C)[C@@]3(C)C(=O)Nc4ncccc43)cc2)cc(C2CCCC2)n1` [Example 6, N-[(2-cyclopentyl-6-methylpyridin-4-yl)methyl]-4-{(1R)-1-[(3R)-3-methyl-2-oxo-2,3-dihydro-1H-pyrrolo[2,3-b]pyridin-3-yl]ethyl}benzamide]: the Kb at human CGRP receptor was 18.2 pM.

On to `Cc1cc(CNC(=O)c2ccc([C@@H](C)[C@@]3(C)C(=O)Nc4ncccc43)cn2)cc(C2CC2)n1` [Example 9, N-[(2-cyclopropyl-6-methylpyridin-4-yl)methyl]-5-{(1R)-1-[(3R)-3-methyl-2-oxo-2,3-dihydro-1H-pyrrolo[2,3-b]pyridin-3-yl]ethyl}pyridine-2-carboxamide], for which the Kb at human CGRP receptor was 24.5 pM.

Take `Cc1cc(C)nc(CNC(=O)c2ccc([C@@H](C)[C@@]3(C)C(=O)Nc4ncccc43)cn2)c1` [Example 15, N-[(4,6-dimethylpyridin-2-yl)methyl]-5-{(1R)-1-[(3R)-3-methyl-2-oxo-2,3-dihydro-1H-pyrrolo[2,3-b]pyridin-3-yl]ethyl}pyridine-2-carboxamide]: at human CGRP receptor, the Kb was 171 ± 33.9 pM.

With `Cc1cc(CNC(=O)c2ccc([C@@H](C)[C@@]3(C)C(=O)Nc4ncccc43)cn2)cc(C)n1` [Example 1, N-[(2,6-dimethylpyridin-4-yl)methyl]-5-{(1R)-1-[(3R)-3-methyl-2-oxo-2,3-dihydro-1H-pyrrolo[2,3-b]pyridin-3-yl]ethyl}pyridine-2-carboxamide], the Kb at human CGRP receptor is 46.5 ± 9.7 pM. In addition, the “group mean inhibition of capsaicin-induced dermal blood flow increase” value in the assay with CGRP receptor (3 mg/kg orally, p<0.008) turned out to be 32.1%; with CGRP receptor (10 mg/kg orally, p<0.0004), 46.1%; with CGRP receptor (30 mg/kg orally, p<0.00002), 58.8%.

Take `CCc1cc(CNC(=O)c2ccc([C@@H](C)[C@@]3(C)C(=O)Nc4ncccc43)cn2)cc(C)n1` [Example 13, N-[(2-ethyl-6-methylpyridin-4-yl)methyl]-5-{(1R)-1-[(3R)-3-methyl-2-oxo-2,3-dihydro-1H-pyrrolo[2,3-b]pyridin-3-yl]ethyl}pyridine-2-carboxamide]: the Kb at human CGRP receptor is 45.3 ± 1.53 pM.

For the molecule `Cc1cc(CNC(=O)c2ccc([C@@H](C)[C@@]3(C)C(=O)Nc4ncccc43)cc2)cc(C2CCC2)n1` [Example 5, N-[(2-cyclobutyl-6-methylpyridin-4-yl)methyl]-4-{(1R)-1-[(3R)-3-methyl-2-oxo-2,3-dihydro-1H-pyrrolo[2,3-b]pyridin-3-yl]ethyl}benzamide], at human CGRP receptor, the Kb was 6.96 pM.

Consider `Cc1cc(CNC(=O)c2ccc([C@@H](C)[C@@]3(C)C(=O)Nc4ncncc43)cn2)cc(C)n1` [Example 10, N-[(2,6-dimethyl-4-pyridyl)methyl]-5-[(1R)-1-[(5R)-5-methyl-6-oxo-7H-pyrrolo[2,3-d]pyrimidin-5-yl]ethyl]pyridine-2-carboxamide], for which the Kb on human CGRP receptor was 198 ± 45.9 pM.

As to `CCc1cc(CNC(=O)c2ccc([C@@H](C)[C@@]3(C)C(=O)Nc4ncccc43)cc2)cc(C)n1` [Example 3, N-[(2-ethyl-6-methylpyridin-4-yl)methyl]-4-{(1R)-1-[(3R)-3-methyl-2-oxo-2,3-dihydro-1H-pyrrolo[2,3-b]pyridin-3-yl]ethyl}benzamide], the Kb on human CGRP receptor was 17.3 pM.

For `Cc1cc(CNC(=O)c2ccc([C@@H](C)[C@@]3(C)C(=O)Nc4ncccc43)cc2)cc(C)n1` [Example 2, N-[(2,6-dimethyl-4-pyridyl)methyl]-4-[(1R)-1-[(3R)-3-methyl-2-oxo-1H-pyrrolo[2,3-b]pyridin-3-yl]ethyl]benzamide], on human CGRP receptor, the Kb was 36.6 ± 15.4 pM.

On to `Cc1cc(CNC(=O)c2ccc([C@@H](C)[C@@]3(C)C(=O)Nc4ncccc43)cc2)cc(C2CC2)n1` [Example 4, N-[(2-cyclopropyl-6-methyl-4-pyridyl)methyl]-4-[(1R)-1-[(3R)-3-methyl-2-oxo-1H-pyrrolo[2,3-b]pyridin-3-yl]ethyl]benzamide], for which the Kb on human CGRP receptor was 26.6 pM.

The values are drawn from US9637495B2, “CGRP receptor antagonists” (Eli Lilly and Company, priority 2015, dated 2017).
